The values below are quoted from earlier work in patent US20050276865A1, “Peroxide compounds for the prevention and treatment of sexual dysfunction in humans” (priority 2004, published 2005).

Molecules are shown by their SMILES.

One data set relates to men with ED. Particulars: injection into the corpus cavernosum (Montorsi et al. 1997).
Assay in data set [1]: not given
This is another data set of the same source.

For `CCCCC[C@H](O)/C=C/[C@H]1[C@H](O)CC(=O)[C@@H]1CCCCCCC(=O)O` [prostaglandin E1], the “Men who achieved improved spontaneous erections and required less frequent injections” value in the data set with men with ED is recorded as 28%.

Take `NC(N)=O.OO` [Carbamide peroxide, carbamide peroxide]: the Solubility in water entry is reported as “water-soluble”. Moreover, the “Stability in aqueous medium” value (aqueous medium) was “highly unstable”. Further, in data set [1] (NTF Chemical Repository), the Irritancy as reported result was “irritant”. In data set [1] (according to many studies (Haywood et al. 1991)), the “Toxicity and carcinogenicity concerns” value is recorded as “unfounded”.
